# Laboratory results as given in patent publication US20110028405A1, “SULFAMIDES AS ZAP-70 INHIBITORS” (priority 2007, published 2011).
# Columns and labels:
# ZAP-70 = molecular target: T1, ZAP-70 (Homo sapiens, UniProt P43403); experiment: ZAP-70 kinobeads assay; type: binding; settings: cell lysate, dot blot detection
# T1 construct: endogenous in cells; host or cells: cell lysate
# T1 sequence (P43403 1-619): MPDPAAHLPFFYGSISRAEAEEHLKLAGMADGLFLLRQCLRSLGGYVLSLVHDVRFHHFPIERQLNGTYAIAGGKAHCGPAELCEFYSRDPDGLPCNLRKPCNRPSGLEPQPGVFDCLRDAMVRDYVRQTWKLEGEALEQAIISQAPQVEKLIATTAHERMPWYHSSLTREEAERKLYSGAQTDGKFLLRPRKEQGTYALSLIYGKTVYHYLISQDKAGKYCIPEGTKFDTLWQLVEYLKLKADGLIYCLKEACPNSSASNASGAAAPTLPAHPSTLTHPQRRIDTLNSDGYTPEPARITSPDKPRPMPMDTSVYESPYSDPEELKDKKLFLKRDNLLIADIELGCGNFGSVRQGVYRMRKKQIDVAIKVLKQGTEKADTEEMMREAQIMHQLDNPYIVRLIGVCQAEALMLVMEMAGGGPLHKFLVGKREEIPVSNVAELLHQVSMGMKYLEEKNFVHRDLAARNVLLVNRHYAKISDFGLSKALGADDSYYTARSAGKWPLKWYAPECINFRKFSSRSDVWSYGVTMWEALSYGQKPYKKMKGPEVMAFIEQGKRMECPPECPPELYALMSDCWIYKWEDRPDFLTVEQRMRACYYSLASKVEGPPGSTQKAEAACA
# Description: The compounds of the present invention as described in the previous examples can be tested in the ZAP-70 kinobeads assay as described (EP-A 1862802 and WO-A 2007/137867). Briefly, test compounds (at various concentrations) and the affinity matrix with the immobilized aminopyrido-pyrimidine ligand 24 are added to cell lysate aliquots and allowed to bind to the proteins in the lysate sample. After the incubation time the beads with captured proteins are separated from the lysate. Bound proteins are then eluted and the presence ZAP-70 is detected and quantified using a specific antibody in a dot blot procedure and the Odyssey infrared detection system.
# Jurkat cells = experiment: Calcium release assay (Fluo-4, flow cytometry, anti-CD3 stimulation); type: cell-based; settings: Homo sapiens; intracellular Ca2+ release in Jurkat cells after anti-CD3 activation
# Description: Compounds of the present invention were tested in a Calcium release assay as described below.
# The development of fluorescent probes makes it possible to measure the concentration of intracellular free Calcium ions in single living cells. Cells are first loaded with a cell-permeable Ca^2+-sensitive dye, then the test compound is added. Finally, cells are activated through the T cell receptor with an anti-CD3 antibody shortly before data acquisition on the flow cytometer. The release of Ca^2+ is measured as a function of time after cell stimulation. This protocol describes the flow cytometry method using the Fluo-3 and Fluo-4 dyes (Minta et al., 1989, J. Biol. Chem. 264(14):8171-8178) to measure the intracellular Ca^2+ concentration in Jurkat cells (see also June et al., 1997, Measurement of intracellular calcium ions by flow cytometry. In: Current Protocols in Cytometry (1997) Unit 9.8.1-9.8.19, John Wiley & Sons, Inc.).
# 1) Prepare a work plan indicating the number of samples to be analyzed including controls. 2) Cell harvest: Centrifuge 50 to 100 ml of a Jurkat cell culture for 5 minutes at 1100 rpm. Discard the supernatant, pool the resuspended cell pellets in a single 50 ml Falcon tube, and fill up to 50 ml with PBS-CaCl2 (without FCS). Centrifuge again sample again. 3) Resuspend cell pellet with PBS-CaCl2 (without FCS) to achieve a concentration not lower than 10×10^6 cells/ml. Prepare an adequate dilution to evaluate the cell concentration and count the cells. 4) Separate the volume of cells needed to be loaded (for example […] for 20 samples) in a 50 ml Falcon tube. Fill up with PBS-CaCl2 to 900 μl for 107 cells. 5) Prepare in the dark a 1:1 mix of FLUO-4 (1 mM)+Pluronic F-127 (20%). 5 μl of Fluo-4 are needed per 107 cells. 6) Prepare a 1/10 dilution of this mix with PBS-CaCl2 (in the dark; for example 5 μl Fluo-4+5 μl F-127 completed to 100 μl). 7) Add the dye solution to the cells. […] 8) Incubate the sample for 30 minutes in a cell incubator (37° C., 5% CO2). Mix from time to time. 9) During this time prepare the adequate test compound dilution in PBS-CaCl2 (with 10% FCS). The solution should be 10 times more concentrated than the desired final concentration. Vortex each dilution. Prepare also the antibody dilutions: anti-CD3 (1/200) and GAM (1/25). 10) Label FACS tubes and distribute in the corresponding tube 30 μl of the compound dilution or only buffer for the control tubes. 11) After 30 minutes of incubation wash the cells twice in PBS-CaCl2 (with 10% FCS). During the washing steps make sure that the flow cytometer is already “ON” in order to warm the laser. 12) Resuspend the cell pellet in PBS-CaCl2 (with 10% FCS) at a concentration of 1.5×10^6 cells/ml. 13) Distribute 300 μl of cell suspension into the FACS tubes and mix gently. The compound incubation is starting. Keep samples at room temperature in the dark. 14) Open the settings of the cytometer. It is advised to have a template ready which is used for all measurements. Settings of the machine should also be the same from one experiment to the other which permits to evaluate the reproducibility of the cell preparation. 15) In Setup modus control your cell preparation on the cytometer. Cells should fit in the pre-defined gates. 16) During the compound incubation time, check also that cells are responding to the anti-CD3 activation as expected. Set a timer at 8 sec. Add 6 μl of anti-CD3 dilution (0.2 μg/ml final) and mix gently. Add 1 μl of GAM dilution (0.75 μg/ml final) and mix gently. Incubate the samples in water bath at 37° C. while starting timer. After 8 seconds of incubation, acquire data at medium speed for 200 seconds. A clear increase of fluorescence should appear after 1 minute. 17) Make sure that the cells rest and equilibrate at room temperature 15 minutes before FACS data acquisition 18) Data acquisition: Samples to be compared should be measured consecutively. 19) For a better reproducibility, make sure that data for the loaded cells are acquired within 2 hours. […]
IC50 (ZAP-70) [nM],IC50 (Jurkat cells) [nM],SMILES
< 50000,–,"COc1cc(Nc2ncc(F)c(Nc3cccc(NS(=O)(=O)N(C)C)c3)n2)cc(OC)c1OC [Example 2, N-(3-(5-fluoro-2-(3,4,5-trimethoxyphenylamino)pyrimidin-4-ylamino)phenyl)-N′,N′-dimethylsulfamide]"
< 50000,–,"COc1cc(Nc2ncc(F)c(Nc3cccc(NS(=O)(=O)NCC4CC4)c3)n2)cc(OC)c1OC [Example 3, N-(3-(5-fluoro-2-(3,4,5-trimethoxyphenylamino)pyrimidin-4-ylamino)phenyl)-N′-cyclopropylmethylsulfamide]"
< 50000,< 1000,"CCNS(=O)(=O)Nc1cccc(Nc2nc(Nc3cc(OC)c(OC)c(OC)c3)ncc2F)c1 [Example 7, N-(3-(5-fluoro-2-(3,4,5-trimethoxyphenylamino)pyrimidin-4-ylamino)phenyl)-N′-ethylsulfamide]"
< 100,< 100,"COc1cc(Nc2ncc(F)c(Nc3ccccc3NS(N)(=O)=O)n2)cc(OC)c1OC [Example 10, N-(2-(5-fluoro-2-(3,4,5-trimethoxyphenylamino)pyrimidin-4-ylamino)phenyl)sulfamide]"
< 50000,< 1000,"COc1cc(Nc2ncc(F)c(Nc3ccccc3NS(=O)(=O)NCC3CC3)n2)cc(OC)c1OC [Example 12, N-(2-(5-fluoro-2-(3,4,5-trimethoxyphenylamino)pyrimidin-4-ylamino)phenyl)-N′-cyclopropylmethylsulfamide]"
< 50000,–,"COc1cc(Nc2ncc(F)c(Nc3ccccc3NS(=O)(=O)NC(C)C)n2)cc(OC)c1OC [Example 13, N-(2-(5-fluoro-2-(3,4,5-trimethoxyphenylamino)pyrimidin-4-ylamino)phenyl)-N′-isopropylsulfamide]"
< 50000,< 1000,"COCCNS(=O)(=O)Nc1ccccc1Nc1nc(Nc2cc(OC)c(OC)c(OC)c2)ncc1F [Example 15, N-(2-(5-fluoro-2-(3,4,5-trimethoxyphenylamino)pyrimidin-4-ylamino)phenyl)-N′-(2-methoxyethyl)sulfamide]"
< 1000,< 100,CN(C)c1ccc(Nc2ncc(Br)c(Nc3ccccc3NS(N)(=O)=O)n2)cc1 [Example 25]
< 1000,< 100,"COc1ccc(Nc2ncc(Br)c(Nc3ccccc3NS(N)(=O)=O)n2)cc1 [Example 26, N-(2-(5-bromo-2-(4-methoxyamino)pyrimidin-4-ylamino)phenyl)sulfamide]"
< 1000,< 1000,"NS(=O)(=O)Nc1ccccc1Nc1nc(Nc2ccc3[nH]nnc3c2)ncc1Br [Example 27, N-(2-(2 (1H-benzo[d][1,2,3]triazol-5-ylamino)-5-bromopyrimidin-4-ylamino)phenyl)sulfamide]"
< 50000,< 1000,"COc1ccc(Nc2ncc(F)c(Nc3ccccc3NS(N)(=O)=O)n2)cc1 [Example 28, N-(2-(5-fluoro-2-(4-methoxyphenylamino)pyrimidin-4-ylamino)phenyl)sulfamide]"
< 100,< 100,"COc1cc(Nc2ncc(F)c(Nc3cccc(C)c3NS(N)(=O)=O)n2)cc(OC)c1OC [Example 30, N-(2-(5-fluoro-2-(3,4,5-trimethoxyphenylamino)pyrimidin-4-ylamino)-6-methylphenyl)sulfamide]"

# The remaining lines, values behind:
SMILES,IC50 (ZAP-70) [nM],IC50 (Jurkat cells) [nM]
"COc1cc(Nc2ncc(F)c(Nc3cccc(NS(N)(=O)=O)c3)n2)cc(OC)c1OC [Example 1, N-(3-(5-fluoro-2-(3,4,5-trimethoxyphenylamino)pyrimidin-4-ylamino)phenyl)sulfamide]",< 50000,< 1000
"COc1cc(Nc2ncc(F)c(Nc3cccc(NS(=O)(=O)NC(C)C)c3)n2)cc(OC)c1OC [Example 6, N-(3-(5-fluoro-2-(3,4,5-trimethoxyphenylamino)pyrimidin-4-ylamino)phenyl)-N′-isopropylsulfamide]",< 50000,–
"COCCNS(=O)(=O)Nc1cccc(Nc2nc(Nc3cc(OC)c(OC)c(OC)c3)ncc2F)c1 [Example 8, N-(3-(5-fluoro-2-(3,4,5-trimethoxyphenylamino)pyrimidin-4-ylamino)phenyl)-N′-(2-methoxyethyl)sulfamide]",< 50000,–
"CNS(=O)(=O)Nc1cccc(Nc2nc(Nc3cc(OC)c(OC)c(OC)c3)ncc2F)c1 [Example 9, N-(3-(5-fluoro-2-(3,4,5-trimethoxyphenylamino)pyrimidin-4-ylamino)phenyl)-N′-methylsulfamide]",< 50000,–
"COc1cc(Nc2ncc(F)c(Nc3ccccc3NS(=O)(=O)N(C)C)n2)cc(OC)c1OC [Example 11, N-(2-(5-fluoro-2-(3,4,5-trimethoxyphenylamino)pyrimidin-4-ylamino)phenyl)-N′,N′-dimethylsulfamide]",< 1000,< 1000
"COc1cc(Nc2ncc(F)c(Nc3ccccc3NS(=O)(=O)NCc3ccccc3)n2)cc(OC)c1OC [Example 14, N-(2-(5-fluoro-2-(3,4,5-trimethoxyphenylamino)pyrimidin-4-ylamino)phenyl)-N′-benzylsulfamide]",< 50000,–
"COc1cc(Nc2ncc(F)c(Nc3ccc(NS(=O)(=O)N(C)C)cc3)n2)cc(OC)c1OC [Example 16, N-(4-(5-fluoro-2-(3,4,5-trimethoxyphenylamino)pyrimidin-4-ylamino)phenyl)N′,N′-dimethylsulfamide]",–,< 1000
"COc1cc(Nc2nccc(Nc3ccccc3NS(N)(=O)=O)n2)cc(OC)c1OC [Example 23, N-(2-(2-(3,4,5-trimethoxyphenylamino)pyrimidin-4-ylamino)phenyl)sulfamide]",< 1000,< 1000
"COc1cc(Nc2ncc(C)c(Nc3ccccc3NS(N)(=O)=O)n2)cc(OC)c1OC [Example 24, N-(2-(5-methyl-2-(3,4,5-trimethoxyphenylamino)pyrimidin-4-ylamino)phenyl)sulfamide]",< 1000,< 100
"CN(C)c1ccc(Nc2ncc(F)c(Nc3ccccc3NS(N)(=O)=O)n2)cc1 [Example 29, N-(2-(5-fluoro-2-(4-(dimethylamino)phenylamino)pyrimidin-4-ylamino)phenyl)sulfamide]",< 1000,–
